Measured values as given in publication PMC7785802, “Therapeutic Efficacy of a Trichinella Spiralis Paramyosin-Derived Peptide Modified With a Membrane-Targeting Signal in Mice With Antigen-Induced Arthritis” (Frontiers in Microbiology, 2020).
“Also recorded” adds a separate entry of the source.

How the values were obtained:
recombinant mouse C9 = assay: Microscale thermophoresis (MST) binding to recombinant mouse C9; conditions: NT-647-labeled mouse C9 1.5 μM, peptides 1.68 to 0 mM, distilled water with 0.05% Tween 20, three independent measurements
Method: To assess the binding affinity of the peptides to human or mouse complement C9, a fluorescence-based biophysical technique known as MST (NanoTemper Technologies GmbH, Germany) was used. Briefly, human or mouse C9 was fluorescently labeled using a Monolith NT™ Protein Labeling Kit NT-647 (NanoTemper Technologies GmbH, Germany) based on the manufacturer's protocol. Next, the peptides were gradiently diluted in distilled water from 1.68 to 0 mM. The labeled human or mouse C9 (1.5 μM) was then incubated with various peptide concentrations for 10 min at room temperature before being loaded into K002 silica capillaries. Measurements were performed using a NanoTemper Monolith NT.115 instrument in distilled water containing 0.05% Tween 20. The data were analyzed using NanoTemper Analysis software (NanoTemper Technologies GmbH, Germany).
To evaluate whether the modified peptide can cross the species barrier to inhibit murine MAC assembly in addition to human MAC assembly and to provide a preliminary experimental basis for the in vivo mouse experiments, MST assays were used again to assess the binding ability of the peptides to recombinant mouse C9. […] To evaluate whether this binding can inhibit NMS-induced erythrocyte lysis (involving the alternative complement pathway), hemolytic assays were performed.
(A) Microscale thermophoresis assay (NanoTemper) in which biomolecular interactions are quantitated by examining the motion of the molecules along a microscopic temperature gradient induced by an infrared laser. Changes in the molecular hydration shell, charge, or size are measured using a fluorescent probe (NT-647) bound covalently to the mouse C9. Binding of control, modified and original peptides to mouse C9 were studied. […] Data points indicate the differences in normalized fluorescence (%) generated by peptides binding to mouse C9, and curves indicate the calculated fits. Error bars represent the standard error of three independent measurements. […] All experiments were performed three times and data are presented as mean ± SD. *p < 0.05, **p < 0.01.

[1] = system: normal mouse knee joint cavity; assay: Peptide retention in normal mouse joint cavities (immunofluorescence); type: in vivo; conditions: biotin-labeled peptide, 10 μg in 10 μl PBS intraarticular, normal mice; for staining of joint cavity after intraarticular injection: 12, 24, 48 h, streptavidin-FITC, one mouse per time point
Method: As previous studies reported, immunofluorescence assay was used to assess the retention time of the peptides in normal mouse joint cavities (Williams et al., [2004]). The normal mice were divided into original and modified peptide groups and treated with the corresponding peptides [10 μg in 10 μl PBS by intraarticular (IA) injection respectively. At 12, 24, and 48 h after injection, a single mouse from each group was randomly chosen and sacrificed under anesthesia (1% sodium pentobarbital, 50 mg/kg)]. Knee joints were dissected, fixed in 4% paraformaldehyde, and decalcified with decalcification solution (0.5 M EDTA, pH 8.0) before embedding in paraffin. Midsagittal serial sections (7 μm in thickness) were cut and peptide retention was assessed using streptavidin-FITC (eBioscience) (1:100 in PBS) followed by fluorescent microscopy (Leica).
Figure 4 Retention time of the modified peptide in the joint cavities was prolonged. The biotin-labeled original or modified peptide was injected into the knee joint and then the knee joints were dissected at 12, 24, and 48 h and probed with streptavidin-FITC in immunofluorescence assays.

[2] = system: mice with antigen-induced arthritis (AIA); assay: Knee joint swelling in antigen-induced arthritis (AIA); type: in vivo, mouse; conditions: 40 μg peptide + 25 μg mBSA in 10 μl PBS intraarticular; days 2, 3 and 4 after induction; n = 6; **p < 0.01
Method: (§1) AIA was induced in male C57BL/6J wildtype mice (8–10 weeks of age) according to a previously described protocol (Ebbinghaus et al., [2017]) with minor modifications. Briefly, the mice were intraperitoneally injected with 200 ng pertussis toxin (List Biological Laboratories, California, USA) prior to being subcutaneously immunized with 100 μg methylated bovine serum albumin (mBSA; Sigma-Aldrich, St. Louis, Missouri, USA) emulsified in Freund's complete adjuvant (Sigma-Aldrich). The immune response was boosted with identical subcutaneous mBSA immunizations at 14 and 21 days after the first immunization. At 28 days after the initial immunization, the right knee joint of each mouse was intraarticularly injected with 10 μl PBS as the control, while the left knee joint received either 10 μl PBS only (normal group), 25 μg mBSA (to induce AIA) in 10 μl PBS (AIA-only group), 40 μg modified peptide with 25 μg mBSA in 10 μl PBS (modified peptide+AIA group), or 40 μg original peptide with 25 μg mBSA in 10 μl PBS (original peptide+AIA group). Every day after AIA induction (and intraarticular peptide treatment), the difference in the joint diameter (swelling in mm) between the right and left knee joints in each mouse was assessed using a digital micrometer to evaluate the AIA severity. Each joint was measured three times and the mean diameter was calculated and recorded. […]

[3] = system: mice with antigen-induced arthritis (AIA); assay: Histology (HE) of AIA knee joints; type: in vivo, mouse; conditions: for synovial histology (HE): 40 μg peptide + 25 μg mBSA intraarticular, day 3 post-AIA induction, n = 6
Method: as §1
To assess the therapeutic effects of the peptides on AIA, the mice were euthanized on day 3 post-AIA induction. […] The degree of histopathologic tissue damage was quantified using the following previously described cumulative score for evaluating disease severity (Durigutto et al., [2013]). […] Additionally, according to the immunofluorescence protocol, tissue deposition of MAC was assessed by immunofluorescence assay with incubating rabbit anti-mouse C9 IgG (Sigma-Aldrich) at a 1:200 dilution overnight at 4°C followed by incubation with FITC-labeled goat anti-rabbit IgG (DAKO, Glostrup, Denmark) at a 1:200 dilution for an additional 60 min at room temperature (Lei et al., [2020]). […]

[4] = system: membrane attack complex (MAC); assay: MAC (C9) deposition in AIA knee joints (immunofluorescence); type: in vivo; conditions: 40 μg peptide + 25 μg mBSA intraarticular; day 3 post-AIA induction; anti-mouse C9 immunofluorescence; n = 6
Method: as §1, with “At 28 days after the initial immunization, the right knee joint of each mouse was intraarticularly injected with 10 μl PBS as the control, while the left knee joint received either 10 μl PBS only (normal group), 25 μg mBSA (to induce AIA) in 10 μl PBS (AIA-only group), 40 μg modified peptide with 25 μg mBSA in 10 μl PBS (modified peptide+AIA group), or 40 μg original peptide with 25 μg mBSA in 10 μl PBS (original peptide+AIA group).” left out
To assess the therapeutic effects of the peptides on AIA, the mice were euthanized on day 3 post-AIA induction. […] The degree of histopathologic tissue damage was quantified using the following previously described cumulative score for evaluating disease severity (Durigutto et al., [2013]). […]

C9 / MAC = conditions: previous study; ref Zhao et al., 2014; cited from earlier work
Excerpt: Paramyosin, a dimeric fibrillar protein, not only forms the thick myofilaments of invertebrate muscle, but also occurs on the surface of helminths and serves as a potential modulator of the host immune system by interacting with human collagen, calgranulin and so on (Zhao et al., [2014]).

| Substance | binding to recombinant mouse C9 (recombinant mouse C9) | staining of joint cavity after intraarticular injection [1] | retention time on synovial lining ([1]; 48 h is last time point) [h] | joint swelling (left vs right knee diameter) compared to AIA-only mice [2] | synovial histology (HE) [3] | histopathological scores ([3]; 40 μg peptide intraarticular at the time of AIA induction, cumulative score (synovial hyperplasia, leukocyte infiltration, fibrosis), no numbers given) | MAC deposition in synovial connective tissue [4] | inhibition of MAC assembly (C9 / MAC) |
| --- | --- | --- | --- | --- | --- | --- | --- | --- |
| GKMSVMSVYKSVLS [control peptide, reference compound] | could not | – | – | – | – | – | – | – |
| Myr-GSSKSPSKKKKKKPG-ACP-VSMGKSLSSKVYVM [modified peptide, Ts-pmy-derived peptide modified with a membrane-targeting signal] | could bind to the recombinant mouse C9; also recorded: concentration-dependent binding | intense staining along the synovial lining even at 48 h after injection | ≥ 48 | significant reductions in joint swelling on days 2, 3, and 4 after disease induction | milder synovial hyperplasia and inflammatory cell infiltration compared to the AIA-only or original peptide+AIA mice | significantly decreased | significantly weaker | – |
| VSMGKSLSSKVYVM [original peptide, tetradecapeptide derived from Trichinella spiralis paramyosin (Ts-pmy)] | could bind to the recombinant mouse C9; also recorded: concentration-dependent binding | no staining | – | – | severe edema, hyperplasia, and inflammatory cell infiltration compared to normal joints | – | clearly detected | inhibited the assembly of MAC |
